From ChEMBL document CHEMBL5729397, “Targeted drug rescue with novel compositions, combinations, and methods thereof” (2022)

Biological target: Cytochrome P450 2D6 (Homo sapiens, UniProt P10635)
Assay: Inhibition of Dextromethorphan Metabolism: Dextromethorphan O-demethylase activity was determined in human liver microsomes. […] The incubation mixtures contained pooled human liver microsomes (final concentrations: 0.25 mg/ml), dextromethorphan, and a NADPH-generating system (1.3 mM NADP+, 3.3 mM glucose 6-phosphate, 3.3 mM MgCl2, and 0.4 U/ml glucose-6-phosphate dehydrogenase). […] All incubations were performed in triplicate, and mean values were used for analysis.

Sequence of Cytochrome P450 2D6 (P10635 whole entry): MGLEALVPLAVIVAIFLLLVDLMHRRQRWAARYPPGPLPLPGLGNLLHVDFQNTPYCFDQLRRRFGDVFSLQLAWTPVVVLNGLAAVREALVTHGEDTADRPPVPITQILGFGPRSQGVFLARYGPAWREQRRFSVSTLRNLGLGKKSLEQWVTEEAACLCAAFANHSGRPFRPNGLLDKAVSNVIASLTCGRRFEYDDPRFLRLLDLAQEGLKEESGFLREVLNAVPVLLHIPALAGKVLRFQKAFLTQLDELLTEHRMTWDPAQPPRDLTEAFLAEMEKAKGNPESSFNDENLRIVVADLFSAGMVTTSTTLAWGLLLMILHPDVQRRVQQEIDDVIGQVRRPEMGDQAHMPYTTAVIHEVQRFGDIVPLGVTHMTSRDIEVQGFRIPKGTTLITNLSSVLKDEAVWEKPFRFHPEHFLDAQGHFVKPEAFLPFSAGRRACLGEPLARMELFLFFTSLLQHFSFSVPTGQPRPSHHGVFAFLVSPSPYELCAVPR

## COc1ccc(CCc2ccccc2OCC(CN(C)C)OC(=O)CCC(=O)O)cc1 (stereo unspecified)
  IC50: 1200 nM
